Assay results taken from patent US6838580B2, “Opioid derivative” (Teikoku Seiyaku Co., Ltd., priority 2002, dated 2005).
“Also recorded” adds a separate entry of the source. Marks after values point to notes of the source that are not given here.

Tests used:
μ-opioid receptor [1] = target: T1, μ-opioid receptor (Rattus norvegicus, UniProt P33535); test: Competitive receptor binding assay, synaptic membrane fraction, [3H]DAGO; settings: for Ki: rat brain synaptic membrane, [3H]DAGO, read-out: Affinity of receptor (Ki, nM) μ; for Selectivity δ/μ: ratio Ki δ / Ki μ
T1 construct: synaptic membrane fraction obtained from the rat brain tissue; from tissue; host or cells: Sprague-Dawley rat brain without cerebellum, synaptic membrane (P2) fraction
T1 sequence (P33535 whole entry): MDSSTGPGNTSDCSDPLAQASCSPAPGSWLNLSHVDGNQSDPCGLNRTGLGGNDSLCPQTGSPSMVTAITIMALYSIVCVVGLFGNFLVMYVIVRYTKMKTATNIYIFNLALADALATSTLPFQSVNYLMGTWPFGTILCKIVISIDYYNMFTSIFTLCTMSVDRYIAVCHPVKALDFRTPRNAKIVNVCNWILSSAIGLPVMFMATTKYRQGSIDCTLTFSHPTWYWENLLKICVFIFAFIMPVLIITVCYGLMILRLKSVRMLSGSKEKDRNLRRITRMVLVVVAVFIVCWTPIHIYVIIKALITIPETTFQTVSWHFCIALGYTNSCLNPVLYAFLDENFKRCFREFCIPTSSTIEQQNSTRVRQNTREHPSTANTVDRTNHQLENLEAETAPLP
Description: Regarding the opioid peptide derivatives synthesized in Examples and Reference Examples, the μ- and δ-opioid receptor affinities were obtained by a competitive receptor assay using the synaptic membrane fraction obtained from the rat brain tissue according to the known methods. That is, Sprague-Dawley rats having an average weight of 150-180 g were killed by decapitation, the brain tissue from which cerebellum had been removed was homogenized in 0.32M sucrose and 1 mM HEPES (pH 7.5) containing 50 μg/ml soybean trypsin inhibitor, fractionated and centrifuged to obtain the synaptic membrane fraction (P2 fraction), which was pre-incubated in 50 mM HEPES (pH 7.5) containing 100 mM NaCl, 0.1 mM GDP and soybean trypsin inhibitor to remove endogenous ligands from the P2 fraction.
A competitive receptor binding assay (Radiolabeled receptor assay: RRA) based on an exchange reaction between a radioactive ligand for the synaptic membrane fraction and a peptide derivative to be tested was performed by using tritium-labeled [^3H]DAGO which is a μ-opioid receptor agonist and tritium-labeled [^3H]DPDPE which has the high δ-opioid receptor selectivity, and incubating an aliquot of the synaptic membrane with the peptide derivative to be tested for a period of time. Upon this, an exchange reaction between a ligand was performed under constant conditions, the radiation remaining in the synaptic membrane fraction was measured, and an amount of the ligand adsorbed onto the synaptic membrane fraction is calculated. By assuming that binding with a receptor occurs in competition between a radioactive ligand and an end ligand, the concentration (IC50) at which the maximum specific binding of the radioactive ligand is 50% inhibited was obtained, from which the affinity constant (Ki) was calculated by a method of Cheng et al. (Biochem. Pharmcol., 22, 3099(1973)).

SD Male rats = test: Analgesic effect, Randoll-Seritto hind limb pressure method, subcutaneous administration; type: in vivo; settings: rat, s.c.
Description: SD Male rats, weighing 110 to 130 g, were used. One group consisted of five rats. The analgesic effects were examined by a Randoll-Seritto method. […] The threshold was expressed in mm Hg. During the measurement, the upper limit of the pressure applied to a hind limb was 100 mm Hg in order to avoid damage of the tissues.
2) When administered intravenously (i.v.), a volume of 2 ml/kg weight was administered to a tail vein and, when administered subcutaneously (s.c.), a volume of 2 ml/kg weight was subcutaneously administered to the back. In the case of intravenous administration, a 1 mg/kg, 3 mg/kg or 10 mg/kg compound of Ex.1 administration group, a 1 mg/kg, 3 mg/kg or 10 mg/kg compound of Ex.4 administration group, a 2 ml/kg physiological saline administration group and a 5 mg/kg morphine hydrochloride administration group were made, respectively. In the case of subcutaneous administration, a 10 mg/kg, 30 mg/kg or 100 mg/kg compound of Ex.1 administration group, a 10 mg/kg, 30 mg/kg or 100 mg/kg compound of Ex.4 administration group, a 2 ml/kg physiological saline administration group and a 5 mg/kg morphine hydrochloride administration group were made, respectively. Observation of the analgesic action was performed 15 minutes, 30 minutes, 1 hour and 2 hours after administration in the case of intravenous administration, 30 minutes, 1 hour, 2 hours and 3 hours after administration in the case of subcutaneous administration, respectively.
In order to perform a significant difference test between respective administration groups and control groups, and between values at respective times before administration and after administration, a Dunnet multiple comparative test method was used. In the statistical processing for performing a significant difference test between morphine hydrochloride administration groups and control groups, Student t-test was used. For performing a significant difference test between values at respective times before administration and after administration in morphine hydrochloride administration groups, a Dunnet multiple comparative test method was used. A significant level was at 5 or lower % risk rate (two-tailed test).

μ-opioid receptor [2] = target: μ-opioid receptor (Cavia porcellus, UniProt A0ACM8Q262); test: Guinea pig ileum (GPI) assay, inhibition of electrically stimulated constriction; type: cell-based; settings: agonist activity, read-out: GPI (IC50 ± S.E.)
μ-opioid receptor (Cavia porcellus, UniProt A0ACM8Q262), sequence (A0ACM8Q262 1-400): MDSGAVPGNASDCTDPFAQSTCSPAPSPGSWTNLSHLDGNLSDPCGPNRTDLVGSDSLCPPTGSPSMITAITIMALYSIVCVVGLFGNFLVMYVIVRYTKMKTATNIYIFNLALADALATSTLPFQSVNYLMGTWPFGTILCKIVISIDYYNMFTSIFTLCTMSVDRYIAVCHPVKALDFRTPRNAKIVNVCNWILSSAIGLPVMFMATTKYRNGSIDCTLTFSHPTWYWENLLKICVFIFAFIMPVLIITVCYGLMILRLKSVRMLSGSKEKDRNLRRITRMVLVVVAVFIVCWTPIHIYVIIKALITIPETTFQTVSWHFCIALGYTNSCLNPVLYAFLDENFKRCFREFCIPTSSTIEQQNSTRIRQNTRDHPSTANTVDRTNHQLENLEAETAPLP
Description: An assay test for agonist and antagonist activities of opioid compounds was performed using guinea pig ileum (GPI) and mouse seminiferous tract (MVD). That is, male guinea pigs having the weight of around 300 g were killed by exsanguination, an ileum section having a length of around 10 cm was isolated from an ileum close to an ileum-caecum region was held at 36° C. The ileum section was placed in a Magnus tube treated with an oxygen mixture (95% O2/5% CO2) and filled with Krebs solution in the state where the rest tension of 1 g was applied with an isotonic transducer and, then, was performed. Then, the electrical stimulation was applied at 30V for 0.5 ms. via electrode previously installed in the Magnus tube to constrict guinea pig ileum longitudinal muscle and, after constriction was stabilized, a peptidase inhibitor was added. Then, the present peptide derivative to be tested was added, the constriction of guinea pig ileum longitudinal muscle was taken by GrassFTO 0.3 transducer and monitored by an amplifier and a recorder connected to the transducer. The opioid activity was determined by constriction inhibition after addition of the peptide derivative to be tested and constriction inhibition cancellation by addition of naloxone, a selective opioid antagonist. […]

[3] = 10 mg/kg, before administration
[4] = 30 mg/kg, before administration
[5] = 100 mg/kg, before administration

Row | Structure (SMILES) | Ki (μ-opioid receptor [1]) | Selectivity δ/μ (μ-opioid receptor [1]) | Change in escape reaction threshold / analgesic effect, in words (SD Male rats; 10 mg/kg) | Threshold (mmHg) (SD Male rats; 10 mg/kg, 0.5 hr) | Threshold (mmHg) (SD Male rats; 10 mg/kg, 1 hr) | Threshold (mmHg) (SD Male rats; 10 mg/kg, 2 hr) | Threshold (mmHg) (SD Male rats; 10 mg/kg, 3 hr) | Threshold (mmHg) (SD Male rats; [3]) | Change in escape reaction threshold / analgesic effect, in words (SD Male rats; 30 mg/kg) | Threshold (mmHg) (SD Male rats; 30 mg/kg, 0.5 hr) | Threshold (mmHg) (SD Male rats; 30 mg/kg, 1 hr) | Threshold (mmHg) (SD Male rats; 30 mg/kg, 2 hr) | Threshold (mmHg) (SD Male rats; 30 mg/kg, 3 hr) | Threshold (mmHg) (SD Male rats; [4]) | Change in escape reaction threshold / analgesic effect, in words (SD Male rats; 100 mg/kg) | Threshold (mmHg) (SD Male rats; 100 mg/kg, 0.5 hr) | Threshold (mmHg) (SD Male rats; 100 mg/kg, 1 hr) | Threshold (mmHg) (SD Male rats; 100 mg/kg, 2 hr) | Threshold (mmHg) (SD Male rats; 100 mg/kg, 3 hr) | Threshold (mmHg) (SD Male rats; [5]) | also measured
1 | Cc1cc(O)cc(C)c1C[C@H](N)C(=O)NCCCCCCNC(=O)[C@@H](N)Cc1c(C)cc(O)cc1C [Ex.4, 1,6-Bis(Dmt-amino)hexane.2HCl] | 0.053 ± 0.01 nM | 870 | tendency of a slight increase in the threshold was seen | 58 ± 3 mmHg | 58 ± 5 mmHg | 55 ± 5 mmHg | 53 ± 1 mmHg | 47 ± 2 mmHg | significant increase was seen 2 hours after administration; also recorded: exhibited the significant analgesic effect 2 hours after administration | 59 ± 3 mmHg | 56 ± 3 mmHg | 65 ± 5^$$ mmHg | 59 ± 4 mmHg | 47 ± 2 mmHg | significant difference was seen in the measured values 30 minutes, 1 hour and 2 hours after administration; also recorded: significant analgesic effect was exhibited from 30 minutes after administration | 69 ± 6**^,$$ mmHg | 68 ± 3*^,$ mmHg | 75 ± 8**^,$$ mmHg | 58 ± 2 mmHg | 48 ± 2 mmHg | Analgesic effect compared with compound of Ex.1, in words (SD Male rats): weaker and has a shorter duration time than in compound of Ex.1
2 | Cc1cc(O)cc(C)c1C[C@H](N)C(=O)NCCCCNC(=O)[C@@H](N)Cc1c(C)cc(O)cc1C.Cl.Cl [Ex.1, 1,4-Bis-(Dmt-amino)butane.2HCl] | 0.041 ± 0.003 nM | 1300 | tendency of an increase in the threshold was seen; also recorded: exhibited the significant analgesic effect as compared with control groups | 55 ± 5 mmHg | 62 ± 6 mmHg | 58 ± 3 mmHg | 57 ± 2 mmHg | 47 ± 2 mmHg | significant increase in the threshold was seen 1 hour and 2 hours after administration | 52 ± 4 mmHg | 65 ± 5^$$ mmHg | 68 ± 3**^,$$ mmHg | 59 ± 4 mmHg | 47 ± 2 mmHg | significant increase was seen at any measuring time after administration; also recorded: approximately comparative to the effect by morphine 5 mg/kg subcutaneous administration | 86 ± 2**^,$$ mmHg | 77 ± 2**^,$$ mmHg | 77 ± 2**^,$$ mmHg | 70 ± 3**^,$$ mmHg | 47 ± 2 mmHg | IC50 (μ-opioid receptor [2]): 5330 ± 650 pM
